Where “and” joins values, the source holds several entries; their conditions need not be identical. Equal entries are not always repeated. Structures can show the parent of a compound that is named as a salt.
Experiment: Content uniformity of the Example 2 lotion: product from ten individual pumps weighed and assayed for content of each drug
Assay type: physicochemical
Details: for average amount contained in a gram of lotion product: per gram of lotion; for assay values, % of label claim / USP Acceptance Value (AV): ten pump samples; for USP Acceptance Value (AV): limit of 15
Protocol: The content uniformity of the lotion was determined by assaying product from ten individual pumps spaced equally over the content of the bottle. After the pump was primed, product from ten pumps was collected by taking product from approximately every tenth pump. The product from each pump was weighed and assayed for content of each drug.

[1] = Example 2 lotion, average ± standard deviation of ten pump samples
[2] = Example 2 lotion, average ± standard deviation of ten pump samples, label claim 20 mg/g
[3] = Example 2 lotion, individual pump samples No. 1-10, label claim 20 mg/g (2.0%), dihydrochloride
[4] = Example 2 lotion, individual pump samples No. 1-10, label claim 20 mg/g (2.0%)

| average amount contained in lotion product, % w/w (Example 2 lotion) | Levocitirizine dihydrochloride Wt. (mg/g), Average [1] | Levocitirizine dihydrochloride % Label Claim, Average [2] | average amount contained in a gram of lotion product (Example 2 lotion) | assay values, % of label claim (Example 2 lotion) | USP Acceptance Value (AV) (Example 2 lotion) | Mupirocin Wt. (mg/g), Average [1] | Mupirocin % Label Claim, Average [2] | Cyanocobalamin Wt. (mg/g), Average [1] | Cyanocobalamin % Label Claim, Average (Example 2 lotion, average ± standard deviation of ten pump samples, label claim 0.7 mg/g) | Compound | Levocitirizine dihydrochloride % Label Claim [3] | Levocitirizine dihydrochloride Wt. [3] | Mupirocin % Label Claim [4] | Mupirocin Wt. [4] | Cyanocobalamin Wt. (Example 2 lotion at maximum strength, individual pump samples No. 1-10, label claim 0.7 mg/g (0.07%)) | Cyanocobalamin % Label Claim (Example 2 lotion, individual pump samples No. 1-10, label claim 0.7 mg/g (0.07%)) |
| --- | --- | --- | --- | --- | --- | --- | --- | --- | --- | --- | --- | --- | --- | --- | --- | --- |
| 1.97 % w/w | 19.76 ± 0.55 mg/g | 98.79 ± 2.77% | 19.76 mg | 90-110% | 6.66 |  |  |  |  | O=C(O)COCCN1CCN([C@H](c2ccccc2)c2ccc(Cl)cc2)CC1 [Levocitirizine dihydrochloride, levocetirizine dihydrochloride] | 97.15% and 96.00% and 102.10% and 103.90% and 99.90% and 101.10% and 96.80% and 95.80% and 96.75% and 97.75% | 19.43 mg/g and 19.32 mg/g and 20.42 mg/g and 20.78 mg/g and 19.98 mg/g and 20.22 mg/g and 19.36 mg/g and 19.16 mg/g and 19.35 mg/g and 19.55 mg/g |  |  |  |  |
| 1.93 % w/w |  |  | 19.32 mg | 90-110% | 6.44 | 19.32 ± 0.38 mg/g | 96.62 ± 1.90% |  |  | C/C(=C\C(=O)OCCCCCCCCC(=O)O)C[C@@H]1OC[C@H](C[C@@H]2O[C@H]2[C@@H](C)[C@H](C)O)[C@@H](O)[C@H]1O [Mupirocin, mupirocin] |  |  | 99.60% and 96.00% (2×) and 96.10% and 95.85% and 98.55% and 95.70% and 92.90% and 98.45% and 97.00% | 19.92 mg/g and 19.20 mg/g (2×) and 19.22 mg/g and 19.17 mg/g and 19.71 mg/g and 19.14 mg/g and 18.58 mg/g and 19.69 mg/g and 19.40 mg/g |  |  |
| 0.07 % w/w |  |  | 0.697 mg | 90-110% | 4.45 |  |  | 0.697 ± 0.013 mg/g | 99.54 ± 1.86% | cyanocobalamin |  |  |  |  | 0.723 mg/g and 0.711 mg/g and 0.694 mg/g and 0.696 mg/g (2×) and 0.682 mg/g (2×) and 0.701 mg/g and 0.684 mg/g and 0.699 mg/g | 103.29% and 101.57% and 99.14% and 99.43% (2×) and 97.43% (2×) and 100.14% and 97.71% and 99.86% |

Source: patent US20160008777A1, “PHARMACEUTICAL COMPOUNDING KIT” (Novotec Consulting Inc., priority 2014, published 2016)
